Calls of active or inactive are those of the source.
Assays:
[1] = molecular target: Genome polyprotein (dengue virus type 2, UniProt P29990); assay: flavivirus cap methylation enzyme inhibition – biochemical, confirmation dose response, primary screen (AID 588689); format: functional
[2] = molecular target: Tyrosine-protein phosphatase non-receptor type 11 (Homo sapiens, UniProt Q06124); assay: PTPN11 enzyme inhibitors – biochemical, selectivity assay for STEP inhibitor project, dose response (AID 602367); format: functional; conditions: read-out: IC50_Mean
[3] = molecular target: T1, Tyrosine-protein phosphatase non-receptor type 22 (Homo sapiens, UniProt Q9Y2R2); assay: lymphoid phosphatase LYP inhibitors – biochemical, selectivity assay for STEP inhibitor project, dose response (AID 624241); format: functional
T1 sequence (Q9Y2R2 whole entry): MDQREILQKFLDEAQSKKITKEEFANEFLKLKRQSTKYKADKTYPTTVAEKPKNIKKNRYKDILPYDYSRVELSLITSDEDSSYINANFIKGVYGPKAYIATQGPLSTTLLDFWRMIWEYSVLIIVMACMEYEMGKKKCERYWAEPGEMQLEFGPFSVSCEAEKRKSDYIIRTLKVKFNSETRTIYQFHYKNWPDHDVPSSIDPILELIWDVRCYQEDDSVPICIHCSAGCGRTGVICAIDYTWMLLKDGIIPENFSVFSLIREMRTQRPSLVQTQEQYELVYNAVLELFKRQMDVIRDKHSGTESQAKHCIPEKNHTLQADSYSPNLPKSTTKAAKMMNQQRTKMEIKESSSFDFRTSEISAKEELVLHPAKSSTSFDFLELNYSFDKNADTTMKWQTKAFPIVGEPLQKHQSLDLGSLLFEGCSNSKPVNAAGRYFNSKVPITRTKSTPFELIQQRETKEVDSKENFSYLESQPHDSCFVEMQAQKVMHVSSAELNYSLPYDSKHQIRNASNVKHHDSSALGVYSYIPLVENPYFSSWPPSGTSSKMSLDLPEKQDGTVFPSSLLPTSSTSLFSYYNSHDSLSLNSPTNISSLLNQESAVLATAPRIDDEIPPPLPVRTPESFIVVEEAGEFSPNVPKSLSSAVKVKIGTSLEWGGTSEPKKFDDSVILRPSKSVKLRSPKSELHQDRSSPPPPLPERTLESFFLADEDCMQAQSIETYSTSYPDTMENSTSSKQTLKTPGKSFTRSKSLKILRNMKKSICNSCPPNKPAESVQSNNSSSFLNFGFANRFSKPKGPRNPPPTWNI

[4] = molecular target: T2, Rac GTPase-activating protein 1 (Homo sapiens, UniProt Q9H0H5); assay: blockers of MgcRacGAP-driven Rac1 GTP hydrolysis – biochemical, ADP Hunter fluorescence, primary and confirmatory, confirmation (AID 624330); format: functional
T2 sequence (Q9H0H5 whole entry): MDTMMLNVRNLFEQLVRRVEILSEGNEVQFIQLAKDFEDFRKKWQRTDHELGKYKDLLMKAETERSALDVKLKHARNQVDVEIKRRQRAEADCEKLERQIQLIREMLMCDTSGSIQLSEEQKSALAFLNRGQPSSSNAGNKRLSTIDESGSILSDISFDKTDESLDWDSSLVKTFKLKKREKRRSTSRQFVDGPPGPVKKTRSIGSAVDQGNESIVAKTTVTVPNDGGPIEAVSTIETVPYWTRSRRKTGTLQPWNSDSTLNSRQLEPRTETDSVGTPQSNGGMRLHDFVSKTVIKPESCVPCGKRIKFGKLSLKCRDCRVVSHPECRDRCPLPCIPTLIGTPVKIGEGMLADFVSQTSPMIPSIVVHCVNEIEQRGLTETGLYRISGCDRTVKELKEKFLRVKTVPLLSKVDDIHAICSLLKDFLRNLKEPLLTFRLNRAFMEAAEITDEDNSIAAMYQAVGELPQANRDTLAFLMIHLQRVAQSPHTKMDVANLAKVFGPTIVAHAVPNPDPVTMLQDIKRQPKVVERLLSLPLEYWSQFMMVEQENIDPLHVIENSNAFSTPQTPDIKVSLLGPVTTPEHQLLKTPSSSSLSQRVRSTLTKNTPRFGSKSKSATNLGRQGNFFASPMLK

[5] = molecular target: Mu-type opioid receptor (Homo sapiens, UniProt P35372); assay: HTS Image-Based Screen for Agonists of the MOR Receptor. [Related pubchem assays (depositor defined):AID1777, AID1785, AID1786, AID2133]; format: functional;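 also: imaging of beta-arrestin GFP recruitment into spots after receptor activation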
Mu-type opioid receptor, sequence (P35372 whole entry): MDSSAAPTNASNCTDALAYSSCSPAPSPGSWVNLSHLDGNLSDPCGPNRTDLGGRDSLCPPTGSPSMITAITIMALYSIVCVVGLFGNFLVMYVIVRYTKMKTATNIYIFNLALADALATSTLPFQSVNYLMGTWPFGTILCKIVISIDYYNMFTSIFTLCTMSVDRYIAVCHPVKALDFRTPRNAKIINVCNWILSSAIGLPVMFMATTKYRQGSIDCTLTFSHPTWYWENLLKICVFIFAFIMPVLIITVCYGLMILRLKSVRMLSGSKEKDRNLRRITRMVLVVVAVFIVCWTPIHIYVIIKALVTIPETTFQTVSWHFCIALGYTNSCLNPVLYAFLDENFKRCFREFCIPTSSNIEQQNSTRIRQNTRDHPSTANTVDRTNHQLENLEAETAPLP

[6] = molecular target: Delta-type opioid receptor (Homo sapiens, UniProt P41143); assay: HTS Image-Based Screen for Agonists of the DOR Receptor. [Related pubchem assays (depositor defined):AID1777, AID1786, AID2133]; format: functional
Delta-type opioid receptor, sequence (P41143 whole entry): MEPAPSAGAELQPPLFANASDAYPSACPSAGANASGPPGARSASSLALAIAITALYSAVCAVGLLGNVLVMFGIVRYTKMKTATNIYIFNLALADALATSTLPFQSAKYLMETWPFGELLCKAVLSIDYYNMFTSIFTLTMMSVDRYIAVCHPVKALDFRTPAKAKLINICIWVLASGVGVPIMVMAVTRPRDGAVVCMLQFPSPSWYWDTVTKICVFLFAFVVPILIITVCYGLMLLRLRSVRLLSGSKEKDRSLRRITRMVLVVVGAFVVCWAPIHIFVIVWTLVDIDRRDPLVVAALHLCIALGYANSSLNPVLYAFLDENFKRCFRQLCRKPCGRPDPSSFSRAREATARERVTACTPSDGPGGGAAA

[7] = molecular target: Kappa-type opioid receptor (Homo sapiens, UniProt P41145); format: functional
Kappa-type opioid receptor, sequence (P41145 whole entry): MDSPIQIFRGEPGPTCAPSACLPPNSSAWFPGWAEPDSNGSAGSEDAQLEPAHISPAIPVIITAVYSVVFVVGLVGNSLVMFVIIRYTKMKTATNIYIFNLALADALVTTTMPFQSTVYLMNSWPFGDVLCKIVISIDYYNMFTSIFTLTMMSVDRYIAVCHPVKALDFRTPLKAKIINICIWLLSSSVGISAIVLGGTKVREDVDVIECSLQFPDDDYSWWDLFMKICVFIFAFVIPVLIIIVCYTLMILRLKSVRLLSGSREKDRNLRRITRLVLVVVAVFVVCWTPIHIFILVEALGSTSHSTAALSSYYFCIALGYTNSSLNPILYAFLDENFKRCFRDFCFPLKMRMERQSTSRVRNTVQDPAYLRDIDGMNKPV

[8] = NIH3T3 cell viability loss – ATP luminescence, mouse fibroblasts, counter-screen, dose response (AID 2010); format: functional, cell-based;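 also: cells exposed to compound for about 90 hours before reading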
[9] = molecular target: T3, Heat shock factor protein 1 (Mus musculus, UniProt P38532); assay: enhancement of HSF1-driven luciferase signal – cell-based, NIH3T3, luminescence, dose retest, confirmation (AID 435004); format: functional;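 also: stress induced by proteasome inhibitor MG132 added 30 min after compound; luciferase reporter driven by HSF1 response element in NIH3T3 cells; actives raise luminescence as potentiators of the MG132 stress response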
T3 sequence (P38532 whole entry): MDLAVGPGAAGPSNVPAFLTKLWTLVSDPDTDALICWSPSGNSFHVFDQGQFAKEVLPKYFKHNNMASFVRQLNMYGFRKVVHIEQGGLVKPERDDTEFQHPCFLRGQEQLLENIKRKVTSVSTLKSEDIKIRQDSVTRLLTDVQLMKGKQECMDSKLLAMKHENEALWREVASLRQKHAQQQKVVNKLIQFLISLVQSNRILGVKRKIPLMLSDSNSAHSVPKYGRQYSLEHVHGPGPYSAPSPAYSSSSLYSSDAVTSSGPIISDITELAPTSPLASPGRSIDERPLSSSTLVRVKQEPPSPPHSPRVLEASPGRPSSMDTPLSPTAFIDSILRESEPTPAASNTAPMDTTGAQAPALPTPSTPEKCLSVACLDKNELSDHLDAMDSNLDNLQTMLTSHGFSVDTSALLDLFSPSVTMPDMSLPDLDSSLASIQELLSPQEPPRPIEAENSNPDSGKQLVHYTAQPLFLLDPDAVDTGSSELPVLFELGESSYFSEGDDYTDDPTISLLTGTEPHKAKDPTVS

[10] = test system: CHO; assay: CHO cell viability loss, potency – luminescence, cytotoxicity control for TLR9-MyD88 binding inhibitor project, dose response (AID 588339); format: functional, cell-based, hamster; conditions: Cricetulus griseus;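 also: CHO cells stably coexpressing TLR9 and MyD88 fusions from primary screen; compound exposure lasted 48 hours before viability readout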
[11] = molecular target: Beta Lactamase (Pseudomonas aeruginosa, UniProt Q932Y6); assay: BLA reporter interference, concentration series – BLA reporter cells, FRET fluorescence, artefact control for TLR9-MyD88 binding inhibitor project, dose response (AID 588341); format: cell-based;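 also: cell based assay in CHO-K1 cells stably expressing beta-lactamase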
Beta Lactamase, sequence (Q932Y6 whole entry): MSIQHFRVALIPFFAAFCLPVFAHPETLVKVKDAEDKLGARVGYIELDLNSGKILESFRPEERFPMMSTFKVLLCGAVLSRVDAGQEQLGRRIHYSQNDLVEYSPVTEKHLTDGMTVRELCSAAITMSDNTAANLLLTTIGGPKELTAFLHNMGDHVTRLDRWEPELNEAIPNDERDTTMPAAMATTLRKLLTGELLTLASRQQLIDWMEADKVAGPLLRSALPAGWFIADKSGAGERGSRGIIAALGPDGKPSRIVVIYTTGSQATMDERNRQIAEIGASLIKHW

[12] = molecular target: T4, Fatty acid synthase (Homo sapiens, UniProt P49327); assay: inhibition of human FAS-TE enzyme activity – biochemical, endpoint fluorescence intensity, uHTS hits, dose response (AID 624327); format: functional;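 also: fluorescence from hydrolysis of an O-methyl fluorescein acyl ester substrate by the enzyme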
T4 sequence (P49327 whole entry): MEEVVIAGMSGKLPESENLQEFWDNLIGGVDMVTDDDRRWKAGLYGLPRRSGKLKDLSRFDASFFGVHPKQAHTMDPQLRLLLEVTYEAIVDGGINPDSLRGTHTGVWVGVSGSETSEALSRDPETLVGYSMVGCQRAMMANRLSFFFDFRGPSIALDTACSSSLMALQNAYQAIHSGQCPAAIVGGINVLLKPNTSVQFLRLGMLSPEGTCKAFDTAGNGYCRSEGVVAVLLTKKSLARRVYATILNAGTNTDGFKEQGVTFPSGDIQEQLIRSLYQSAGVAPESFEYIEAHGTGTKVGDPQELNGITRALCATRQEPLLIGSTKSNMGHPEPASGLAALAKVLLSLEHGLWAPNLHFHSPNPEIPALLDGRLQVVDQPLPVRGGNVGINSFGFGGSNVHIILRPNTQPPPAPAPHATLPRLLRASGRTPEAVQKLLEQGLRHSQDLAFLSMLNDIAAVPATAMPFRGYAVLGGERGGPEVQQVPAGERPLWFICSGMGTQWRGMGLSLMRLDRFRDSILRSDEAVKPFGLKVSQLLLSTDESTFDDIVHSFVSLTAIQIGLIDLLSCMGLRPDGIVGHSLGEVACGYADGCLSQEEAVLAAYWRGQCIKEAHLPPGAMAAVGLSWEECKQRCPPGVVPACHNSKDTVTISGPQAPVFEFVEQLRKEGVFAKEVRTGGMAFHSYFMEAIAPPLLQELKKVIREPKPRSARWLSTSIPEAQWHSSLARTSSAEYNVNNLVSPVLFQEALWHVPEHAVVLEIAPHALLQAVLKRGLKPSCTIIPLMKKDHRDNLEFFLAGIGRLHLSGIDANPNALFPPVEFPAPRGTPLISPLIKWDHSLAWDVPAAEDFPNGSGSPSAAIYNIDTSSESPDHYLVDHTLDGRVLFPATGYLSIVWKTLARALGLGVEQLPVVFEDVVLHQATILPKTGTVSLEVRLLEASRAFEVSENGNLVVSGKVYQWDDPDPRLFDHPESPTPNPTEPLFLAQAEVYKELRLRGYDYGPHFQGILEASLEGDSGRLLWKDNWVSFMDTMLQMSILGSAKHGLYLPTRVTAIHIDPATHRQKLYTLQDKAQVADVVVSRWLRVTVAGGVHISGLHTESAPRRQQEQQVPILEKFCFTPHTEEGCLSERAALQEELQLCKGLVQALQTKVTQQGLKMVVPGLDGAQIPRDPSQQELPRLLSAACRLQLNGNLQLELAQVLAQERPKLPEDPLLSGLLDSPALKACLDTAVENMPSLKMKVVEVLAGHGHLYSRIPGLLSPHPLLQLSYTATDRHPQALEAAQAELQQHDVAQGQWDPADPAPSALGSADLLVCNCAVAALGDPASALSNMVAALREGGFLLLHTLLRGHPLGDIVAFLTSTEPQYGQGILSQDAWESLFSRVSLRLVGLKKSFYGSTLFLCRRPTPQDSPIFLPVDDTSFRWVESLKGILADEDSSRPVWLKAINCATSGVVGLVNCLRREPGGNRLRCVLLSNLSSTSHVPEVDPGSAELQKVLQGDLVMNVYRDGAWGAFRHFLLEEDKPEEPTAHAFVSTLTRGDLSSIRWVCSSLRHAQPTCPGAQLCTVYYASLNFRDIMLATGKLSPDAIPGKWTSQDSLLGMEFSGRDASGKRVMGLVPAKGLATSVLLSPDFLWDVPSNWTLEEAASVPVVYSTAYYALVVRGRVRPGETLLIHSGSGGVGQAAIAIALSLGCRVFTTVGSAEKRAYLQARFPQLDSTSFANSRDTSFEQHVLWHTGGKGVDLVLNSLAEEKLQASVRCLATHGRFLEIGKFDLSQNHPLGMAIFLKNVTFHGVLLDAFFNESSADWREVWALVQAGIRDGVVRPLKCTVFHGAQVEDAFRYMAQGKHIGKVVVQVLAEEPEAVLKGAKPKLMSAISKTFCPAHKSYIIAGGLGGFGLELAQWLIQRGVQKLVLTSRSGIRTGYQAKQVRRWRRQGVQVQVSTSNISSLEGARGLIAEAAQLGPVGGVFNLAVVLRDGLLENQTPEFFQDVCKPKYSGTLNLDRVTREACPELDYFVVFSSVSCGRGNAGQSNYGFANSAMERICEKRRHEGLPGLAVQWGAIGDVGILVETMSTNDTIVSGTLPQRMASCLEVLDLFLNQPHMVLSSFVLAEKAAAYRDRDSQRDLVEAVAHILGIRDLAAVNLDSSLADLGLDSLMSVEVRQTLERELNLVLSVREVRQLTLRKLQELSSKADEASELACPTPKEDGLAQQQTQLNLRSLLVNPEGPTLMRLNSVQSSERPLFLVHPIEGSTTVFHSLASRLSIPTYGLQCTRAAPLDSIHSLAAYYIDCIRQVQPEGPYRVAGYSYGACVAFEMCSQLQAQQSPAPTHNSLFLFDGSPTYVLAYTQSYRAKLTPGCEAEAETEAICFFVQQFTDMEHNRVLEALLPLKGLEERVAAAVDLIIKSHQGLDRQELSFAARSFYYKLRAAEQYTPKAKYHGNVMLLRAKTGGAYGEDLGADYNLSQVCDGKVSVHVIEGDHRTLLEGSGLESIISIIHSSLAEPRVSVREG

[13] = molecular target: T4, Fatty acid synthase; assay: inhibition of human FAS-TE enzyme activity – biochemical, kinetic fluorescence intensity, dose response (AID 624326); format: functional;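 also: rate of fluorescence rise from hydrolysis of a fluorogenic O-methyl fluorescein ester substrate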
[14] = viability loss in THP-1 monocytes – THP-1 cells, cytotoxicity control for Vif-APOBEC3G degradation inhibitor project, dose response (AID 1117359); format: functional; conditions: THP-1

Genome polyprotein, sequence (P29990 2492-3391 limits assumed): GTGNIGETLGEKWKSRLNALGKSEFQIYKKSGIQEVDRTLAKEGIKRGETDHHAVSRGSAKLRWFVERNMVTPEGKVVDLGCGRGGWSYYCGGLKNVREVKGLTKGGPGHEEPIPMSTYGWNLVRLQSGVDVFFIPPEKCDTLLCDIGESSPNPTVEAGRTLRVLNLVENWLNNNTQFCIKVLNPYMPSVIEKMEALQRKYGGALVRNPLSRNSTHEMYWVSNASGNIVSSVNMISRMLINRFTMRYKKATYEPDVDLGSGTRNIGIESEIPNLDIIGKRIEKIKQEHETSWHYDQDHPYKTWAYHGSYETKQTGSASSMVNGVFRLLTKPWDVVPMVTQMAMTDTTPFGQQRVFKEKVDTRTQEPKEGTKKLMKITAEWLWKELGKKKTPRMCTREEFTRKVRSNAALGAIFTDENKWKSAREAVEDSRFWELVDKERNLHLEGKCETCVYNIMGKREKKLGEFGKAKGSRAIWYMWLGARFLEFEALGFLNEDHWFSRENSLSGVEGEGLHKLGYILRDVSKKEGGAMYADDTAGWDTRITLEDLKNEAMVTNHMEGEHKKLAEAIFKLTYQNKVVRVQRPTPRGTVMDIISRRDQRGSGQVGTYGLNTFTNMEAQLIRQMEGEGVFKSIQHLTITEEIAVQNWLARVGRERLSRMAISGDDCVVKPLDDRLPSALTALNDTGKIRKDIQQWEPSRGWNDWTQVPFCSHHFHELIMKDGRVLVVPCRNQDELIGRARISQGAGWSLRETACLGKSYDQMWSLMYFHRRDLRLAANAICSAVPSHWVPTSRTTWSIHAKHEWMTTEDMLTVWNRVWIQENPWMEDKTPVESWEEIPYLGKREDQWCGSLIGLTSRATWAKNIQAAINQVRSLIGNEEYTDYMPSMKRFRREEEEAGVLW

Row | SMILES | IC50 [1] | IC50 [2] | IC50 [3] | IC50 [4] | EC50 [5] | EC50 [6] | IC50 [7] | EC50 [8] | EC50 [9] | IC50 [10] | IC50 [11] | IC50 [12] | IC50 [13] | CC50 [14]
1 | O=S(=O)(O)c1cc(O)c2cc(Nc3ccccc3)ccc2c1 | 19.4 µM (active) | 0.335 µM (active) | 5.09 µM (active) | 37.9 µM (active) |  |  |  |  |  |  |  |  |  | 
2 | O=[N+]([O-])c1c(Nc2ccccc2O)cc(Cl)c2nonc12 | 9.7 µM (active) |  |  |  | > 32 µM (inactive) | > 32 µM (inactive) | 2.89 µM (active) | 3.68 µM (active) | 3.49 µM (inconclusive) | 1.36 µM (active) | 18.4 µM (inactive) | 14.6 µM (active) | 7.45 µM (active) | 12.2 µM (active)

— ChEMBL document CHEMBL1201862, “PubChem BioAssay data set” (2004)
